According to PMC12540682, “Purification and biochemical characterization of L-glutaminase from Aspergillus oryzae with potential biotechnological applications in synthesis of L-theanine and as antitumor agent” (Scientific Reports, 2025):

Assays:
[1] = test system: T1, L-glutaminase (Glut) from Aspergillus oryzae EG-RE9; assay: ammonia release (Nessler), Lineweaver-Burk; type: biochemical; details: pH 7.0, 35 °C, 1 h; L-glutamine 0.25-12 mM
T1 construct: gene gtaA; native extracellular enzyme purified from culture filtrate (ammonium sulfate, DEAE-cellulose, Sephadex G-200); 65 kDa by SDS-PAGE

[2] = molecular target: T1, L-glutaminase (Glut) from Aspergillus oryzae EG-RE9; assay: residual activity after preincubation, ammonia release (Nessler); type: biochemical; details: 0.1 M phosphate pH 7.0, 20 min preincubation at 37 °C, covalent
Experimental: residual activity after preincubation, ammonia release (Nessler) on L-glutaminase (Glut) from Aspergillus oryzae EG-RE9 | The IC50 of BD, NBS, DEPC, and NEM for A. oryzae L-glutaminase were […]

NC(=O)CC[C@H](N)C(=O)O [L-glutamine]
Km [1]: 1400 µM

O=C1CCC(=O)N1Br [N-bromosuccinimide]
IC50 ([2]; group-specific modifier of Trp): 5.7 mM

CCN1C(=O)C=CC1=O [N-ethylmaleimide]
IC50 ([2]; group-specific modifier of Cys): 4.8 mM

CC(=O)C(C)=O [butanedione]
IC50 ([2]; group-specific modifier of Arg): 6.6 mM

CCOC(=O)OC(=O)OCC [diethyl pyrocarbonate]
IC50 ([2]; group-specific modifier of His): 7 mM
